# According to US20240199542A1, “SUBSTITUTED PYRROLIDIN-2-ONES, SALTS THEREOF AND THEIR USE AS HERBICIDALLY ACTIVE SUBSTANCES” (Bayer Aktiengesellschaft, priority 2021, published 2024):
# Experiments:
# Assay type in all cases: in vivo
# [1] = tested on: Alopecurus myosuroides (ALOMY); assay: Herbicidal pre-emergence action; details: 1280 g/ha, graded after ca. 3 weeks
# How it was run: (§1)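 Sown seeds in sandy loam received the formulated compounds on the covering soil at application rates up to 1280 g/ha, applied in 600 l water/ha with 0.5% additive. Damage was graded visually after about 3 weeks relative to untreated plants.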
# Veronica persica (VERPE) = assay: Herbicidal pre-emergence action; details: 1280 g/ha, graded after ca. 3 weeks
# How it was run: as §1
# [2] = tested on: Cyperus esculentus (CYPES); assay: Herbicidal post-emergence action; details: 1280 g/ha, assessed after ca. 3 weeks
# How it was run: (§2)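 Post-emergence greenhouse spray test: single-leaf plants treated with WP or EC formulations at 1280 g/ha or 320 g/ha in 600 l water/ha containing 0.5% additive. Activity is visual percent damage after roughly 3 weeks relative to untreated controls.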
# Avena fatua (AVEFA) [3] = assay: Herbicidal pre-emergence action; details: graded after ca. 3 weeks
# How it was run: as §1
# [4] = tested on: Cyperus esculentus (CYPES); assay: Herbicidal pre-emergence action; details: 1280 g/ha, graded after ca. 3 weeks
# How it was run: as §1
# [5] = tested on: Digitaria sanguinalis (DIGSA); assay: Herbicidal pre-emergence action; details: 320 g/ha, graded after ca. 3 weeks
# How it was run: as §1
# [6] = tested on: Echinochloa crus-galli (ECHCG); assay: Herbicidal pre-emergence action; details: 1280 g/ha, graded after ca. 3 weeks
# How it was run: as §1
# [7] = tested on: Lolium multiflorum (LOLMU); assay: Herbicidal pre-emergence action; details: 1280 g/ha, graded after ca. 3 weeks
# How it was run: as §1
# Lolium rigidum (LOLRI) = assay: Herbicidal pre-emergence action; details: 320 g/ha, graded after ca. 3 weeks
# How it was run: as §1
# [8] = tested on: Polygonum convolvulus (POLCO); assay: Herbicidal pre-emergence action; details: graded after ca. 3 weeks
# How it was run: as §1
# Setaria viridis (SETVI) [9] = assay: Herbicidal pre-emergence action; details: 1280 g/ha, graded after ca. 3 weeks
# How it was run: as §1
# Viola tricolor (VIOTR) = assay: Herbicidal pre-emergence action; details: 320 g/ha, graded after ca. 3 weeks
# How it was run: as §1
# [10] = tested on: Alopecurus myosuroides (ALOMY); assay: Herbicidal post-emergence action; details: 1280 g/ha, assessed after ca. 3 weeks
# How it was run: as §2
# Avena fatua (AVEFA) [11] = assay: Herbicidal post-emergence action; details: 1280 g/ha, assessed after ca. 3 weeks
# How it was run: as §2
# [12] = tested on: Digitaria sanguinalis (DIGSA); assay: Herbicidal post-emergence action; details: 320 g/ha, assessed after ca. 3 weeks
# How it was run: as §2
# [13] = tested on: Echinochloa crus-galli (ECHCG); assay: Herbicidal post-emergence action; details: 1280 g/ha, assessed after ca. 3 weeks
# How it was run: as §2
# [14] = tested on: Lolium multiflorum (LOLMU); assay: Herbicidal post-emergence action; details: 1280 g/ha, assessed after ca. 3 weeks
# How it was run: as §2
# Setaria viridis (SETVI) [15] = assay: Herbicidal post-emergence action; details: 1280 g/ha, assessed after ca. 3 weeks
# How it was run: as §2
# Brassica napus (BRSNW) [16] = assay: Pre-emergence effects on crop plants; details: 320 g/ha, crop plant
# Source text: (§3) Seeds of mono- and dicotyledonous weed plants and crop plants were sown, in plastic or organic planting pots, in sandy loam and covered with soil. The compounds according to the invention, formulated in the form of wettable powders (WP) or as emulsifiable concentrates (EC), were applied to the surface of the covering soil as aqueous suspension or emulsion, with the addition of 0.5% of an additive, at an application rate of 600 1 of water/ha (converted).
# (§4) Following treatment, the pots were placed in a greenhouse and kept under optimum growth conditions for the test plants. The visual grading of the damage to the test plants was carried out after ca. 3 weeks in comparison to untreated controls (herbicidal effect in percent (%): 100% effect=plants have died off, 0% effect=as control plants).
# (§5) Tables C1 to C3 below show the effects of selected compounds of the general formula (I) according to table 1 on various crop plants and an application rate corresponding to 320 g/ha or below obtained by the experimental procedure mentioned above in biology section A.
# Glycine max (GLXMA) [17] = assay: Pre-emergence effects on crop plants; details: crop plant
# Source text: as §3, §4, §5
# Brassica napus (BRSNW) [18] = assay: Post-emergence effects on crop plants; details: application rate 320 g/ha, crop plant Brassica napus (BRSNW)
# Source text: (§6) Seeds of mono- and dicotyledonous weed plants and crop plants were sown, in plastic or organic planting pots, in sandy loam, covered with soil and grown in a greenhouse under controlled growth conditions. 2 to 3 weeks after sowing, the test plants were sprayed in the single-leaf stage. The compounds according to the invention, formulated in form of wettable powders (WP) or as emulsifiable concentrates (EC), were sprayed onto the green plant parts as aqueous suspension or emulsion, with the addition of 0.5% of an additive, at an application rate of 600 1 of water/ha (converted). The test plants were placed in the greenhouse for ca. 3 weeks under optimum growth conditions, and then the effect of the preparations was assessed visually in comparison with untreated controls (herbicidal effect in percent (%): 100% effect=plants have died off, 0% effect=as control plants).
# (§7) Tables D1 to D3 below show the effects of selected compounds of the general formula (I) according to table 1 on various crop plants and an application rate corresponding to 320 g/ha or below obtained by the experimental procedure mentioned above in biology section B.
# Glycine max (GLXMA) [19] = assay: Post-emergence effects on crop plants; details: 320 g/ha, crop plant
# Source text: as §6, §7
# [20] = tested on: Polygonum convolvulus (POLCO); assay: Herbicidal post-emergence action; details: 1280 g/ha, assessed after ca. 3 weeks
# How it was run: as §2
# Zea Mays (ZEAMX) [21] = assay: Pre-emergence effects on crop plants; details: 320 g/ha, crop plant
# Source text: as §3, §4, §5
# Zea Mays (ZEAMX) [22] = assay: Post-emergence effects on crop plants; details: 320 g/ha, crop plant
# Source text: as §6, §7
Compound,Pre-emergence activity against ALOMY [1],Post-emergence activity against CYPES [2],Pre-emergence activity against AVEFA (Avena fatua (AVEFA) [3]; 1280 g/ha),Pre-emergence activity against CYPES [4],Pre-emergence activity against ECHCG [6],Pre-emergence activity against LOLMU [7],Post-emergence activity against ALOMY [10],Post-emergence activity against AVEFA (Avena fatua (AVEFA) [11]),Post-emergence activity against ECHCG [13],Post-emergence activity against LOLMU [14],Post-emergence activity against SETVI (Setaria viridis (SETVI) [15]),pre-emergence activity against BRSNW (crop damage) (Brassica napus (BRSNW) [16]),post-emergence activity against BRSNW (Brassica napus (BRSNW) [18]),post-emergence activity against GLXMA (crop damage) (Glycine max (GLXMA) [19]),Pre-emergence activity against POLCO ([8]; 1280 g/ha),also measured
CC(C)CNC(=O)CC1CCC(=O)N1Cc1cccc(F)c1F (racemic) [Example I-056],80%,80%,–,–,–,–,–,–,–,–,–,–,–,–,–,Pre-emergence activity against VERPE (Veronica persica (VERPE)): 100%
CS(=O)(=O)CCOC(=O)CC1CCC(=O)N1Cc1cccc(F)c1F (racemic) [Example I-009],90%,–,100%,80%,90%,80%,80%,90%,100%,90%,80%,0%,20%,0%,–,Pre-emergence activity against DIGSA [5]: 90%; Pre-emergence activity against LOLRI (Lolium rigidum (LOLRI)): 80%; Pre-emergence activity against POLCO ([8]; 320 g/ha): 80%; Pre-emergence activity against SETVI (Setaria viridis (SETVI) [9]): 80%; Pre-emergence activity against VIOTR (Viola tricolor (VIOTR)): 100%; Post-emergence activity against DIGSA [12]: 80%; pre-emergence activity against GLXMA (crop damage) (Glycine max (GLXMA) [17]; 80 g/ha): 20%
"CC[C@H](C)[C@H](NC(=O)CC1CCC(=O)N1Cc1cccc(F)c1F)C(=O)O (single isomer, unassigned) [Example I-005]",90%,90%,100%,–,80%,80%,90%,90%,100%,90%,90%,–,–,–,80%,Post-emergence activity against POLCO [20]: 80%
COCC(=O)CC(=O)CNC(=O)CC1CCC(=O)N1Cc1cccc(F)c1F (racemic) [Example I-006],90%,80%,100%,90%,90%,90%,90%,100%,100%,80%,80%,–,–,–,90%,–
"Cn1ncnc1NC(=O)CC1CCC(=O)N1Cc1cccc(F)c1F (single isomer, unassigned) [Example I-075]",–,–,–,–,–,–,–,100%,–,–,–,0%,0%,0%,–,Pre-emergence activity against AVEFA (Avena fatua (AVEFA) [3]; 320 g/ha): 90%; pre-emergence activity against GLXMA (crop damage) (Glycine max (GLXMA) [17]; 320 g/ha): 0%; pre-emergence activity against ZEAMX (crop damage) (Zea Mays (ZEAMX) [21]): 0%; post-emergence activity against ZEAMX (crop damage) (Zea Mays (ZEAMX) [22]): 0%
